# Results published in BindingDB's records for doi:10.1074/jbc.270.11.6056 (Medical Research Council Centre, 1995).
# Where a name gives a salt, the structure may show the parent alone.
# Biological target: T1, 5-hydroxytryptamine receptor 3A (Mus musculus, UniProt P23979)
# T1 sequence (P23979 whole entry): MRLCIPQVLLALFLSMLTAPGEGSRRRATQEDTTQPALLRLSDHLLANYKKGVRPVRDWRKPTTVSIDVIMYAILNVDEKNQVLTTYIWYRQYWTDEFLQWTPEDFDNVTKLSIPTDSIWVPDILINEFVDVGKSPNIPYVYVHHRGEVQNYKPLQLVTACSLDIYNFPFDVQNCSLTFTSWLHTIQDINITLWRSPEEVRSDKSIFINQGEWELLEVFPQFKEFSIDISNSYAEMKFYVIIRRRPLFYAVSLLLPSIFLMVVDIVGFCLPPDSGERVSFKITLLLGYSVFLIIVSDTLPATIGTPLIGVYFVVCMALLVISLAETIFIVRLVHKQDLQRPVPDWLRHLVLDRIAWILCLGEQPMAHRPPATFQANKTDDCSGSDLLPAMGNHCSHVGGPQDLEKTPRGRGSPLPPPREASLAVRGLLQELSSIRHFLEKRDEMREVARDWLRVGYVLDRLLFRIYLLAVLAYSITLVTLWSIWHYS
row,Ki [nM],SMILES
1,0.94,N=C(N)NC(=N)Nc1cccc(Cl)c1 [1-(3-CHLOROPHENYL)BIGUANIDE HYDROCHLORIDE]
2,0.21,Cc1nc[nH]c1CCC(=O)c1cc2ccccc2n1C [CAS_124006]

row,SMILES,Ki [nM]
1,CN1C2CCC1CC(OC(=O)c1cc(Cl)cc(Cl)c1)C2 (stereo not drawn) [MDL 72222],13
